{"source": "patent US10213527B2", "about": "“Functionalized titanium binding peptides and implants coated with same” (Ben-Gurion University of the Negev Research and Development …, priority 2012, dated 2019)", "key": {"[1]": {"experiment": "HPLC chromatography on TiO2 anatase microparticle column (Example 2)", "type": "binding", "conditions": "0.4 mg/ml in TBS (10 mM, pH=7.4) loading buffer", "method": "A stainless steel (4.6×50 mm) column was packed with TiO2 anatase (Sachtopore NP 10μ/100 Å, particle size/pore size respectively) suspended in methanol. The packed column was washed consecutively with water and 0.1 M NaOH to desorb surface contaminants. The column was then pre-equilibrated with the loading/running buffer. The chromatographic process was performed on a HPLC system (Algient Technologies, 1260 Infinity, Germany). Peptides dissolved in the loading/running buffer (0.4 mg/ml) were sonicated for 10 minutes and centrifuged at […] for 8 minutes and were injected to the TiO2 column at a flow rate of 0.02 ml/min to attain ˜40 minutes retention time for adsorption. 10 mM tris buffered saline pH 7.4 (TBS) was used as adsorption/running media. After 65 minutes, the flow rate was increased to 0.5 ml/min. Elution was carried out by gradients of 200 mM sodium bicarbonate solution pH 7.4 and 0.1 M NaOH. Elution was monitored at 280 nm. All solutions were filtered using 0.2 μm filters (Millipore, Badford, Mass.).\nPeptide adsorption and desorption conditions were characterized by HPLC. A column was packed with micrometer size particles of the TiO2 anatase phase (see Materials and Methods). Tris buffer saline (TBS), pH 7.4, served as a loading buffer. […]"}, "[2]": {"experiment": "Calcium-phosphate adsorption on peptide coated TiO2 surfaces (XPS)", "conditions": "Ca—P solution 24 h at 37° C.; FIG. 17B", "method": "Surfaces were incubated in TBS solution for 45 min in room temperature, and then the surfaces were incubated in 0.4 mg ml^−1 peptide-TBS 10 mM solution for 1 hr at room temperature and were dried with nitrogen. Peptide coating were analyzed by XPS.\nThe ability to absorb calcium-phosphate (Ca—P) ions by the different peptide coatings were measured using Ca—P solution. The solution was prepared at physiological pH and contained K2HPO4 (1.0 mM), CaCl2.2H2O (2.5 mM), dissolved consecutively in deionized water at 37° C. and buffered at pH ˜7.4 using 50 mM Trizma™ base and an appropriate volume of 1M HCl. Coated surfaces were incubated in Ca—P solution at 37° C. for 24 h.\nHowever it contradicts the β-cpSer adsorption isotherm result. This phenomenon can be explained by the different surface topography and surface area between TiO2 particles and TiO2 surface, adsorption surface area at adsorption isotherm experiment is 1.123 m^2 and the surface area is 10^−4 m^2. At small surface areas, the difference between peptides' adsorption cannot be observed. In order to examine the influence of the Glu tail on calcified mineralization process, titanium oxide surfaces were coated with pSer peptide or with the control peptides (cpSer or β-cpSer) and incubated for 24 hours inside calcium-phosphate solution (see Materials and Methods). Atomic concentrations of calcium and phosphorus were compared with titanium as measured by XPS."}, "[3]": {"experiment": "Chromatography of PpSer on TiO2 anatase column (bicarbonate and NaOH elution gradients)", "type": "binding", "description": "Chromatography on TiO2 Surfaces: as described in Golan Gertler, Gideon Fleminger and Hanna Rapaport. Langmuir 2010, 26(9), 6457-6463, and further illustrated in FIG. 3. Stainless steel (4.6_50 mm) column was packed with TiO2 anatase (Sachtopore NP 10μ/100 A°, particle size/pore size respectively) suspended in methanol. The packed columns were washed consecutively with water and 0.1 M NaOH to desorb surface contaminants. The columns were then pre-equilibrated with the running buffer. Lyophilized peptides were dissolved in the running buffer (0.2 mg/mL) and centrifuged at 5000 g for 5 min prior to injection into the column to remove possible aggregates. The supernatants (100 μL) were injected on to the TiO2 column at a flow rate of 0.02 mL/min to attain 40 min retention time for adsorption. After 65 minutes, the flow rate was increased to 0.5 mL/min. Ten millimolar Tris and phosphate buffer solutions, pH 7.4, were used as adsorption (running) media. In addition, these buffers complemented by 150 mM NaCl (TBS, PBS, respectively) were also examined. Elution was carried out by gradients of the following solutions applied consecutively to the column: 1 M NaCl, 80% acetonitrile, 200 mM sodium phosphate, and 0.1 M NaOH, monitored at 215-280 nm. The chromatograms were obtained at room temperature using 0.2 μm filtered (Millipore, Badford, Mass.) solutions.\nThe peptide dissolved in two different running buffer, Tris buffer saline (TBS) and sodium bicarbonate saline (BCS). The affinity of functional groups to TiO2 from previous works was known to be PO4^−3>HCO3^−>COO^−. (The diagonal line in the chromatography is the elution gradient: 0-200 mM sodium bicarbonate & 0-0.1M NaOH).\nPeptides that bind to TiO2 only through Glutamic acid functional groups will elute in BC gradient, however peptides that bind to TiO2 through pSer functional groups will elute in the NaOH gradient.\nThe idea behind using BCS as running buffer is to block the surface with carbonate ions before the peptide injection."}, "[4]": {"experiment": "Adsorption isotherm onto TiO2 particles, Sips equation fitting", "type": "binding", "conditions": "10 mM TBS pH 7.4, 1 h room temperature; Sips fit", "method": "The adsorption of all three peptides to TiO2 particles were measured with peptides solution in a range of concentrations from 0.002 to 0.524 mM in 10 mM TBS solution. TiO2 particles were suspended in TBS 10 mM, pH 7.4, to a final concentration of 1.8 mg/ml. To each test tube containing 0.5 ml of peptide at different concentrations, 0.5 ml of TiO2 particles solution was added. The samples were continuously mixed with a tube rotator for 1 h at room temperature. To precipitate the TiO2 particles, the test tubes were centrifuged at 5000 rpm for 3 minutes and the absorption of the supernatant was measured at 280 nm using a microplate-reader (BioTek instruments). Peptide concentration was determined based on calibration curve of each peptide prepared in TBS solution. In order to describe the adsorption of molecules on TiO2 particles surface the sips equation, also known as the Langmuir-Freundlich equation (1), was used:\n[formula] where S is the amount of adsorbed molecules (mol m^−2), Smax is the maximum amount of molecules adsorbed (mol m^−2), C is their concentration is solution at equilibrium (mM), k is the association coefficient (M^−1) and α is the constant representing this distribution.^30\nPeptide adsorption and desorption conditions were characterized by HPLC. A column was packed with micrometer size particles of the TiO2 anatase phase (see Materials and Methods). […]"}, "[5]": {"experiment": "Adsorption of sodium phenyl phosphate dibasic to TiO2 microparticles (solution depletion)", "type": "binding", "parameters": "Difference in concentration of the solution between the initial and the final one: unit: mg/ml", "conditions": "TiO2 microparticles 1.8 mg/ml, TBS", "method": "Several solutions of sodium phenyl phosphate dibasic with different concentrations, dissolved in the same TBS, were allowed to adsorb to TiO2 microparticles (1.8 mg/ml in 1 ml). Table 6, herein below lists the initial concentrations and the difference in concentration of the solution between the initial and the one following adsorption. According to Table 6, the phenyl phosphate adsorbs only at concentrations lower than 0.25 mg/ml probably because at higher concentrations the compound undergoes some aggregation and stays only in the solution. This adsorption behavior is unusual and therefore no binding affinity constants were determined."}, "[6]": {"conditions": "BCS (sodium bicarbonate saline) running buffer, FIG. 7B"}}, "note": "“Also recorded” adds a separate entry of the source. Non-standard residues stand in square brackets, D forms with d. Residues, ends and D or L forms follow the SMILES beside them. No end group written: not given here. pS = N[C@@H](COP(=O)(O)O)C(=O)O"}
{"molecule": "Trp-Glu", "values": [{"measurement": "adsorption to the oxide", "setting": "[1]", "value": "does not adsorb"}]}
{"molecule": "Pro-pSer-Phe-pSer-Trp-(Gly)3 (P[pS]F[pS]WGGG) [cpSer, control peptide lacking the stretch of the Glu residues]", "values": [{"measurement": "calcium and phosphate adsorbed by coated surfaces (atomic ratio of P and Ca to Ti)", "setting": "[2]", "value": "approximately the same calcium and phosphate concentrations"}]}
{"molecule": "O=C(O)CC[C@H](NC(=O)[C@H](CCC(=O)O)NC(=O)[C@H](CCC(=O)O)NC(=O)[C@H](CCC(=O)O)NC(=O)[C@H](CCC(=O)O)NC(=O)CNC(=O)CNC(=O)CNC(=O)[C@H](Cc1c[nH]c2ccccc12)NC(=O)[C@H](COP(=O)(O)O)NC(=O)[C@H](Cc1c[nH]c2ccccc12)NC(=O)[C@H](COP(=O)(O)O)NC(=O)[C@@H]1CCCN1)C(=O)O", "note": "[PpSer, Pro-pSer-Trp-pSer-Trp-(Gly)3-(Glu)5] (H-P[pS]W[pS]WGGGEEEEE-OH; N-terminus and C-terminus assumed)", "values": [{"measurement": "fraction of the peptide able to displace the carbonate ions and bind TiO2 through pSer", "setting": "[3]; [6]", "value": "⅔ and two-thirds"}, {"measurement": "fraction of the peptide that can't displace the carbonate ions, bonded to them, eluted at BC gradient", "setting": "[3]; [6]", "value": "⅓ and about one third"}, {"measurement": "mode of binding to TiO2 on the column", "setting": "[3]; TBS running buffer, 10 mM pH 7.4, FIG. 7A", "value": "bonded to TiO2 through pSer functional groups"}]}
{"molecule": "Pro-Ser(phos)-Ser(phos)-Phe-Trp-(Gly)3 (P[pS][pS]FWGGG) [β-cpSer]", "values": [{"measurement": "Smax, maximum amount of molecules adsorbed to TiO2 surface", "setting": "[4]", "value": "7.48E−7", "unit": "mol · m^−2"}, {"measurement": "calcium and phosphate adsorbed by coated surfaces (atomic ratio of P and Ca to Ti)", "setting": "[2]", "value": "approximately the same calcium and phosphate concentrations"}]}
{"molecule": "O=P([O-])([O-])Oc1ccccc1.[Na+].[Na+]", "note": "[sodium phenyl phosphate dibasic]", "values": [{"measurement": "Difference in concentration of the solution between the initial and the final one", "setting": "[5]; 0.0625 mg/ml in adsorbing solution", "value": 0.02365}, {"measurement": "Difference in concentration of the solution between the initial and the final one", "setting": "[5]; 0.125 mg/ml in adsorbing solution", "value": 0.02083}, {"measurement": "Difference in concentration of the solution between the initial and the final one", "setting": "[5]; 0.25 mg/ml in adsorbing solution", "value": 0.008776}, {"measurement": "Difference in concentration of the solution between the initial and the final one", "setting": "[5]; 0.5 mg/ml in adsorbing solution", "value": "~0"}, {"measurement": "Difference in concentration of the solution between the initial and the final one", "setting": "[5]; 1 mg/ml in adsorbing solution", "value": "~0"}, {"measurement": "concentrations at which the compound adsorbs to TiO2 microparticles", "setting": "[5]", "value": "lower than 0.25 mg/ml"}]}
{"molecule": "Pro-Ser(phos)-Phe-Ser(phos)-Trp-(Gly)3-(Glu)5 (P[pS]F[pS]WGGGEEEEE) [pSer]", "values": [{"measurement": "calcium and phosphate adsorbed by coated surfaces (atomic ratio of P and Ca to Ti)", "setting": "[2]", "value": "significantly higher calcium and phosphate concentration; also recorded: adsorbs more Ca and P ions"}]}
